The text below walks through data of paper PMC9770967, “Native holdup (nHU) to measure binding affinities from cell extracts” (Science Advances, 2022).

For assay [1], the target named is isolated PDZ domain of SNX27. The note with it: 10-mer PBM peptide vs isolated PDZ domain, holdup; cited from earlier work.
Assay [2] addresses SCRIB PDZ1. The note with it: fragmentomic, isolated PDZ domain; cited from earlier work. The text has this: Supplement sciadv.ade3828_table_s1.zip/sciadv.ade3828_table_s1.xlsx, sheet "nHU-WB_SP" | column: Domain-motif fragmentomic affinities (ProfAff)
The target of assay [3] is SCRIB PDZ3. The note with it: fragmentomic, isolated PDZ domain; cited from earlier work. The text has this: (§1) Supplement sciadv.ade3828_table_s1.zip/sciadv.ade3828_table_s1.xlsx, sheet "nHU-WB_SP"
In assay [4] the target is SCRIB PDZ2. The note with it: fragmentomic, isolated PDZ domain; cited from earlier work.
Source text: as §1

Assay [5] addresses T1, endogenous full-length SNX27 (Homo sapiens, UniProt Q96L92).
T1 construct: Supernatant fractions were probed with specific antibodies against endogenous full-length PDZ domain–containing proteins SCRIB and SNX27; endogenous in cells; host or cells: Jurkat E6.1 total cell extract
As to the kind of experiment: Single-point nHU-WB, 12 PBM peptide baits, Jurkat extract. Format: binding.

Assay [6] has as its target endogenous full-length SCRIB (Homo sapiens, UniProt Q14160). The assay is described as above. Format: binding.

Read-outs that look alike come from different tables or passages of the source. *1 amine or outer side, *2 acyl side, *3 side chain or, on linkers, in order; H or OH if unused. Where a SMILES comes first, the peptide text is derived from it. The star is where a group is joined. X1 = O=C(CCCC[C@@H]1SC[C@@H]2NC(=O)N[C@@H]21)NCCCOCCOCCOCCCN*; Suc = O=C(CCC(=O)[*:2])[*:1]

Sequence of endogenous full-length SCRIB (Q14160 whole entry): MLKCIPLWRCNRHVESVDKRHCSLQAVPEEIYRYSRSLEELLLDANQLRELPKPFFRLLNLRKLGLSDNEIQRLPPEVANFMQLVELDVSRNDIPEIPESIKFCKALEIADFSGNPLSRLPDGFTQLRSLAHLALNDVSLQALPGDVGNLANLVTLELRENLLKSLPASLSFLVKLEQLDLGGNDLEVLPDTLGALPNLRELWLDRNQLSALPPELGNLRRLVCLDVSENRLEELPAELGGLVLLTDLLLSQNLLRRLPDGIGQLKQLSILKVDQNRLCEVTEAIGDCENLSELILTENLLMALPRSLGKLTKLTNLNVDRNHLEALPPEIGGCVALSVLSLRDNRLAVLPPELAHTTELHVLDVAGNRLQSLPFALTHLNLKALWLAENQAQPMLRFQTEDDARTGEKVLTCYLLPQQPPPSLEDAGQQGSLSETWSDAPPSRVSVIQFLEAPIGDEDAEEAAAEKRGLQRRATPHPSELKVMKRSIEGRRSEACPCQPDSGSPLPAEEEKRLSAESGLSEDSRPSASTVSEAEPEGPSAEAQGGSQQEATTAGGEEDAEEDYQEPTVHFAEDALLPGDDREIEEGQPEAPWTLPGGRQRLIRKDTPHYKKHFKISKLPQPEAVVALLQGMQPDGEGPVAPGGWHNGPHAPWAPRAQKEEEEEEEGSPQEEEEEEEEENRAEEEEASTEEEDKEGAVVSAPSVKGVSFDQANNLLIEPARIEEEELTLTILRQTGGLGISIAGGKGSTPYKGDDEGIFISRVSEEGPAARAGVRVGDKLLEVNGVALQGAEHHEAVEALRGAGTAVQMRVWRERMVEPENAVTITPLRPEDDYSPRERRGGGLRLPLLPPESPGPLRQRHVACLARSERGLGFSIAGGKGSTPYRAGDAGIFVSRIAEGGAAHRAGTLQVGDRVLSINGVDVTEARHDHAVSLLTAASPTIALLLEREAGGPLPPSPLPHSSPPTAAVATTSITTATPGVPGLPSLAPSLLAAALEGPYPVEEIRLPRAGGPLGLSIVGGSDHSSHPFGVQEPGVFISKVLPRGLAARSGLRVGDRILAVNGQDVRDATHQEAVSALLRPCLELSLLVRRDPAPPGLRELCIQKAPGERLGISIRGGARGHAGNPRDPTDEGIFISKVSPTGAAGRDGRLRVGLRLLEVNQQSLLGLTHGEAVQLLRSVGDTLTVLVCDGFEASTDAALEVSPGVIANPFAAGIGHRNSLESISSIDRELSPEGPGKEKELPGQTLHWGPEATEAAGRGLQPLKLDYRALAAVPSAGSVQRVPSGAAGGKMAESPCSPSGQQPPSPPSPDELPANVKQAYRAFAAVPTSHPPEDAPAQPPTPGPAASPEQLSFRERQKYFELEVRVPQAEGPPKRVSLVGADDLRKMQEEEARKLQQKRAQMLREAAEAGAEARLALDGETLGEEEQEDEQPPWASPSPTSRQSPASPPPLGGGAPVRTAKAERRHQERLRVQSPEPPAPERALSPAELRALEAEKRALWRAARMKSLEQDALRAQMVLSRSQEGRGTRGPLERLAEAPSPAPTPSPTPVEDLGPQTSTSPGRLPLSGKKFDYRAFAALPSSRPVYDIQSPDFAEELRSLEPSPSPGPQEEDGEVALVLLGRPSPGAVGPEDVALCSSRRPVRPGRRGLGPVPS

On to `CC[C@H](C)[C@H](NC(=O)CCC(=O)NCCCOCCOCCOCCCNC(=O)CCCC[C@@H]1SC[C@@H]2NC(=O)N[C@@H]21)C(=O)N[C@@H](CC(=O)O)C(=O)N[C@@H](CC(N)=O)C(=O)N[C@@H](CC(=O)O)C(=O)N[C@H](C(=O)N[C@@H](CCC(=O)O)C(=O)N[C@@H](CO)C(=O)N[C@H](C(=O)N[C@@H](C)C(=O)N[C@@H](CC(C)C)C(=O)O)[C@@H](C)O)[C@@H](C)O` [ARHGAP17] ({X1-Suc}-IDNDTESTAL-OH; C-terminus assumed), for which the “pKd (fragmentomic affinity)” value in assay [1] is given as 4.97. Moreover, in assay [2], the pKd_PDZ1 was 4.91. In addition, in assay [3], the pKd_PDZ3 is recorded as 4.57. Moreover, the pKd_PDZ2 in assay [4] is recorded as 3.61.

With `CC(C)C[C@H](NC(=O)[C@H](CO)NC(=O)[C@@H](NC(=O)[C@H](CCC(=O)O)NC(=O)[C@H](CC(C)C)NC(=O)[C@H](CO)NC(=O)[C@H](Cc1c[nH]cn1)NC(=O)[C@H](CC(C)C)NC(=O)[C@@H]1CCCN1C(=O)[C@H](CO)NC(=O)CCC(=O)NCCCOCCOCCOCCCNC(=O)CCCC[C@@H]1SC[C@@H]2NC(=O)N[C@@H]21)[C@@H](C)O)C(=O)O` [ATP2B1] ({X1-Suc}-SPLHSLETSL-OH; C-terminus assumed), the “pKd (fragmentomic affinity)” value in assay [1] is 5.48. The pKd_PDZ1 in assay [2] is 5.36. In addition, the pKd_PDZ3 in assay [3] is 5.54. Moreover, the pKd_PDZ2 in assay [4] is listed as 4.27.

On to `CC(C)C[C@H](NC(=O)[C@H](CO)NC(=O)[C@@H](NC(=O)[C@H](CCC(=O)O)NC(=O)[C@H](CCC(=O)O)NC(=O)[C@H](CS)NC(=O)[C@@H](NC(=O)[C@H](CCCNC(=N)N)NC(=O)[C@@H](NC(=O)[C@@H]1CCCN1C(=O)CCC(=O)NCCCOCCOCCOCCCNC(=O)CCCC[C@@H]1SC[C@@H]2NC(=O)N[C@@H]21)C(C)C)C(C)C)[C@@H](C)O)C(=O)O` [OTULIN] ({X1-Suc}-PVRVCEETSL-OH; C-terminus assumed), for which, in assay [1], the “pKd (fragmentomic affinity)” value is recorded as 5.58. Further, the pKd_PDZ1 in assay [2] is recorded as 5.44. The pKd_PDZ3 in assay [3] is listed as 5.64. In assay [4], the pKd_PDZ2 was 4.70.

As to `CSCC[C@H](NC(=O)[C@@H](NC(=O)[C@H](CO)NC(=O)[C@H](CCC(=O)O)NC(=O)[C@H](CCCCN)NC(=O)[C@H](CCC(=O)O)NC(=O)[C@H](CO)NC(=O)[C@H](C)NC(=O)[C@@H](NC(=O)[C@@H](NC(=O)CCC(=O)NCCCOCCOCCOCCCNC(=O)CCCC[C@@H]1SC[C@@H]2NC(=O)N[C@@H]21)[C@@H](C)O)C(C)C)C(C)C)C(=O)O` [SLC1A5] ({X1-Suc}-TVASEKESVM-OH; C-terminus assumed), in assay [1], the “pKd (fragmentomic affinity)” value was 5.29. Also, the results for the Kd in assay [5] and in assay [6] were 8.91 µM and 112 µM, respectively. In addition, in assay [2], the pKd_PDZ1 is on record as 5.20. For the same compound, the pKd_PDZ3 in assay [3] is recorded as 3.97.

As for `CC(C)[C@H](NC(=O)CN)C(=O)N[C@@H](CCC(=O)O)C(=O)NCC(=O)N[C@@H](CO)C(=O)N[C@@H](CC(=O)O)C(=O)N[C@H](C(=O)N[C@H](C(=O)N[C@@H](CCC(=O)O)C(=O)N[C@@H](C)C(=O)O)[C@@H](C)O)[C@@H](C)O` [MAP4] (H-GVEGSDTTEA-OH), the Kd in assay [5] (apparent, Eq. 2, ~10 μM bait, Jurkat extract, mean of n = 3, read-out: av.pKapp (converted)) was 1.51 µM; in assay [6] (apparent, Eq. 2, ~10 μM bait, Jurkat extract, mean of replicates with a value, read-out: av.pKapp (converted)), 1.17 µM.

Consider `CC(C)[C@H](NC(=O)[C@@H]1CCCN1C(=O)[C@H](CO)NC(=O)[C@H](CCC(=O)O)NC(=O)[C@H](CCC(=O)O)NC(=O)[C@H](CCC(=O)O)NC(=O)[C@H](CCCCN)NC(=O)[C@@H]1CCCN1C(=O)CNC(=O)CNC(=O)CCC(=O)NCCCOCCOCCOCCCNC(=O)CCCC[C@@H]1SC[C@@H]2NC(=O)N[C@@H]21)C(=O)O` [SLC16A1] ({X1-Suc}-GGPKEEESPV-OH; C-terminus assumed), for which, in assay [1], the “pKd (fragmentomic affinity)” value is reported as 5.27. Further, the results for the Kd in assay [5] and in assay [6] were 6.17 µM and 69.2 µM, respectively. For the same compound, in assay [2], the pKd_PDZ1 is given as 5.18.
